Test results as given in the supplement of paper PMC11451515.

How the values were obtained:
Conditions in all cases: 48 h
NOMO1 [1] = assay: cell viability relative to DMSO control; higher = less cytotoxic
Method in brief: (§1)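 Library compounds in DMSO were pin-dosed into 1536-well plates (5 μl) holding NOMO1 or SEM (500 cells/well) or P12-Ichikawa (1000 cells/well) leukemia cells, across an 11-point threefold series of 47 μM to 0.79 nM. Each cell line had been adapted for at least four passages in each medium. CellTiter-Glo One luminescence was read after 48 h at 37°C. Viability is the per-plate percentage relative to DMSO wells, with cell-free wells as background.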

P12-Ichikawa [2] = assay: as above
Method in brief: as §1

SEM cells [3] = assay: as above
Method in brief: as §1

NOMO1 [4] = assay: AUC of viability dose-response curve (% viability x log10 dose units); higher = less sensitive
Method in brief: (§2)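 Leukemia cells adapted to each medium were seeded in 1536-well plates (500 or 1000 cells/well) and given library compounds in DMSO for 48 h at 37°C. The 11 threefold doses spanned 47 μM to 0.79 nM, and CellTiter-Glo One luminescence was normalised per plate to DMSO and cell-free wells before four-parameter log-logistic fitting on log10 dose. Area under the curve was integrated with the trapezoidal rule, scaling curves above full viability and removing curves that failed quality control.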

P12-Ichikawa [5] = assay: as above
Method in brief: as §2

SEM cells [6] = assay: as above
Method in brief: as §2

CC(C)C1=C(O)C=C(O)C(=C1)C/2=N/NC(=O)N2C3=CC4=C(C=C3)[N](C)C=C4
cell viability [%]
Conditions | NOMO1 [1] | P12-Ichikawa [2] | SEM cells [3]
HPLM + 10% dialyzed FBS, 0.000781 µM | 134 | 119 | –
HPLM + 10% dialyzed FBS, 0.00234 µM | 116 | 118 | –
HPLM + 10% dialyzed FBS, 0.00702 µM | 123 | 118 | –
HPLM + 10% dialyzed FBS, 0.0211 µM | 130 | 117 | –
HPLM + 10% dialyzed FBS, 0.0632 µM | 118 | 116 | –
HPLM + 10% dialyzed FBS, 0.19 µM | 29.5 | 78.1 | –
HPLM + 10% dialyzed FBS, 0.569 µM | 23.4 | 51.7 | –
HPLM + 10% dialyzed FBS, 1.71 µM | 23.2 | 54.2 | –
HPLM + 10% dialyzed FBS, 5.12 µM | 20.7 | 49 | –
HPLM + 10% dialyzed FBS, 15.4 µM | 21 | 47.4 | –
HPLM + 10% dialyzed FBS, 46.1 µM | 15.8 | 45.3 | –
RPMI 5 mM glucose + 10% FBS, 0.000781 µM | 106 | 119 | 123
RPMI 5 mM glucose + 10% FBS, 0.00234 µM | 101 | 123 | 112
RPMI 5 mM glucose + 10% FBS, 0.00702 µM | 107 | 125 | 116
RPMI 5 mM glucose + 10% FBS, 0.0211 µM | 112 | 112 | 101
RPMI 5 mM glucose + 10% FBS, 0.0632 µM | 105 | 110 | 72.5
RPMI 5 mM glucose + 10% FBS, 0.19 µM | 19.6 | 51 | 22.7
RPMI 5 mM glucose + 10% FBS, 0.569 µM | 16.3 | 41 | 25.2
RPMI 5 mM glucose + 10% FBS, 1.71 µM | 15.3 | 41.3 | 20
RPMI 5 mM glucose + 10% FBS, 5.12 µM | 16.8 | 41.8 | 23.6
RPMI 5 mM glucose + 10% FBS, 15.4 µM | 16.3 | 41.6 | 20.7
RPMI 5 mM glucose + 10% FBS, 46.1 µM | 13.3 | 38.6 | 15.4
RPMI 5 mM glucose + 10% dialyzed FBS, 0.000781 µM | 120 | 112 | 113
RPMI 5 mM glucose + 10% dialyzed FBS, 0.00234 µM | 117 | 123 | 112
RPMI 5 mM glucose + 10% dialyzed FBS, 0.00702 µM | 130 | 127 | 111
RPMI 5 mM glucose + 10% dialyzed FBS, 0.0211 µM | 118 | 122 | 114
RPMI 5 mM glucose + 10% dialyzed FBS, 0.0632 µM | 95.9 | 116 | 75.2
RPMI 5 mM glucose + 10% dialyzed FBS, 0.19 µM | 32.6 | 48.7 | 34.2
RPMI 5 mM glucose + 10% dialyzed FBS, 0.569 µM | 22.3 | 45.6 | 29.6
RPMI 5 mM glucose + 10% dialyzed FBS, 1.71 µM | 19.6 | 42.6 | 23.8
RPMI 5 mM glucose + 10% dialyzed FBS, 5.12 µM | 20 | 44.4 | 25
RPMI 5 mM glucose + 10% dialyzed FBS, 15.4 µM | 16.9 | 41.5 | 25.3
RPMI 5 mM glucose + 10% dialyzed FBS, 46.1 µM | 17.6 | 39 | 22

AUC of viability dose-response curve
Conditions | NOMO1 [4] | P12-Ichikawa [5] | SEM cells [6]
HPLM + 10% dialyzed FBS | 259 | 335 | 248
RPMI 5 mM glucose + 10% FBS | 254 | 304 | 241
RPMI 5 mM glucose + 10% dialyzed FBS | 250 | 307 | 259

OC1CCC(Nc2ncc3nc(Nc4c(F)cc(F)cc4F)n([C@@H]4CCOC4)c3n2)CC1 (stereo partly drawn)
cell viability [%]
Conditions | NOMO1 [1] | P12-Ichikawa [2] | SEM cells [3]
HPLM + 10% dialyzed FBS, 0.000781 µM | 112 | 111 | 96.4
HPLM + 10% dialyzed FBS, 0.00234 µM | 119 | 114 | 93.4
HPLM + 10% dialyzed FBS, 0.00702 µM | 131 | 115 | 99.2
HPLM + 10% dialyzed FBS, 0.0211 µM | 143 | 117 | 110
HPLM + 10% dialyzed FBS, 0.0632 µM | 126 | 119 | 118
HPLM + 10% dialyzed FBS, 0.19 µM | 142 | 126 | 108
HPLM + 10% dialyzed FBS, 0.569 µM | 143 | 127 | 110
HPLM + 10% dialyzed FBS, 1.71 µM | 134 | 124 | 107
HPLM + 10% dialyzed FBS, 5.12 µM | 141 | 120 | 125
HPLM + 10% dialyzed FBS, 15.4 µM | 131 | 117 | 80.9
HPLM + 10% dialyzed FBS, 46.1 µM | 128 | 114 | 91.4
RPMI 5 mM glucose + 10% FBS, 0.000781 µM | 106 | 113 | 96.5
RPMI 5 mM glucose + 10% FBS, 0.00234 µM | 113 | 123 | 92.9
RPMI 5 mM glucose + 10% FBS, 0.00702 µM | 108 | 114 | 103
RPMI 5 mM glucose + 10% FBS, 0.0211 µM | 113 | 119 | 95.7
RPMI 5 mM glucose + 10% FBS, 0.0632 µM | 107 | 127 | 105
RPMI 5 mM glucose + 10% FBS, 0.19 µM | 118 | 122 | 101
RPMI 5 mM glucose + 10% FBS, 0.569 µM | 105 | 134 | 97.4
RPMI 5 mM glucose + 10% FBS, 1.71 µM | 110 | 127 | 105
RPMI 5 mM glucose + 10% FBS, 5.12 µM | 125 | 120 | 95.4
RPMI 5 mM glucose + 10% FBS, 15.4 µM | 115 | 118 | 40.9
RPMI 5 mM glucose + 10% FBS, 46.1 µM | 121 | 123 | 99.4
RPMI 5 mM glucose + 10% dialyzed FBS, 0.000781 µM | 102 | 111 | 90.4
RPMI 5 mM glucose + 10% dialyzed FBS, 0.00234 µM | 119 | 117 | 111
RPMI 5 mM glucose + 10% dialyzed FBS, 0.00702 µM | 115 | 114 | 114
RPMI 5 mM glucose + 10% dialyzed FBS, 0.0211 µM | 119 | 120 | 96.1
RPMI 5 mM glucose + 10% dialyzed FBS, 0.0632 µM | 114 | 117 | 112
RPMI 5 mM glucose + 10% dialyzed FBS, 0.19 µM | 128 | 117 | 116
RPMI 5 mM glucose + 10% dialyzed FBS, 0.569 µM | 122 | 127 | 118
RPMI 5 mM glucose + 10% dialyzed FBS, 1.71 µM | 125 | 119 | 116
RPMI 5 mM glucose + 10% dialyzed FBS, 5.12 µM | 135 | 126 | 100
RPMI 5 mM glucose + 10% dialyzed FBS, 15.4 µM | 131 | 121 | 84.3
RPMI 5 mM glucose + 10% dialyzed FBS, 46.1 µM | 126 | 114 | 87.3

AUC of viability dose-response curve
Conditions | NOMO1 [4] | P12-Ichikawa [5] | SEM cells [6]
HPLM + 10% dialyzed FBS | 465 | 468 | 474
RPMI 5 mM glucose + 10% FBS | 446 | 465 | 452
RPMI 5 mM glucose + 10% dialyzed FBS | 448 | 468 | 458

FC1=CC=C(SC/2=N/N3\C=N/C(=O)/C(=C3/C=C2)C4=C(Cl)C=CC=C4Cl)C(=C1)F
cell viability [%]
Conditions | NOMO1 [1] | P12-Ichikawa [2] | SEM cells [3]
HPLM + 10% dialyzed FBS, 0.000781 µM | 99 | 100 | 79
HPLM + 10% dialyzed FBS, 0.00234 µM | 108 | 104 | 85.9
HPLM + 10% dialyzed FBS, 0.00702 µM | 108 | 114 | 89.7
HPLM + 10% dialyzed FBS, 0.0211 µM | 114 | 108 | 91.1
HPLM + 10% dialyzed FBS, 0.0632 µM | 112 | 114 | 92
HPLM + 10% dialyzed FBS, 0.19 µM | 118 | 102 | 88.1
HPLM + 10% dialyzed FBS, 0.569 µM | 119 | 117 | 98.5
HPLM + 10% dialyzed FBS, 1.71 µM | 107 | 114 | 89.7
HPLM + 10% dialyzed FBS, 5.12 µM | 101 | 114 | 88.1
HPLM + 10% dialyzed FBS, 15.4 µM | 99.2 | 94.9 | 76.7
HPLM + 10% dialyzed FBS, 46.1 µM | 50.2 | 33.6 | 44.9
RPMI 5 mM glucose + 10% FBS, 0.000781 µM | 98.8 | 105 | 97.5
RPMI 5 mM glucose + 10% FBS, 0.00234 µM | 93.2 | 101 | 104
RPMI 5 mM glucose + 10% FBS, 0.00702 µM | 104 | 95.7 | 106
RPMI 5 mM glucose + 10% FBS, 0.0211 µM | 118 | 108 | 101
RPMI 5 mM glucose + 10% FBS, 0.0632 µM | 104 | 106 | 108
RPMI 5 mM glucose + 10% FBS, 0.19 µM | 115 | 104 | 101
RPMI 5 mM glucose + 10% FBS, 0.569 µM | 98.3 | 106 | 102
RPMI 5 mM glucose + 10% FBS, 1.71 µM | 105 | 98.6 | 112
RPMI 5 mM glucose + 10% FBS, 5.12 µM | 95.3 | 93.4 | 93.8
RPMI 5 mM glucose + 10% FBS, 15.4 µM | 104 | 66.2 | 62.9
RPMI 5 mM glucose + 10% FBS, 46.1 µM | 43.7 | 24.8 | 20.1
RPMI 5 mM glucose + 10% dialyzed FBS, 0.000781 µM | 98.7 | 96.4 | 91.7
RPMI 5 mM glucose + 10% dialyzed FBS, 0.00234 µM | 114 | 104 | 78.6
RPMI 5 mM glucose + 10% dialyzed FBS, 0.00702 µM | 105 | 110 | 95.7
RPMI 5 mM glucose + 10% dialyzed FBS, 0.0211 µM | 103 | 104 | 93.4
RPMI 5 mM glucose + 10% dialyzed FBS, 0.0632 µM | 101 | 107 | 103
RPMI 5 mM glucose + 10% dialyzed FBS, 0.19 µM | 106 | 107 | 87.5
RPMI 5 mM glucose + 10% dialyzed FBS, 0.569 µM | 108 | 105 | 83.3
RPMI 5 mM glucose + 10% dialyzed FBS, 1.71 µM | 110 | 120 | 79.3
RPMI 5 mM glucose + 10% dialyzed FBS, 5.12 µM | 108 | 105 | 77.2
RPMI 5 mM glucose + 10% dialyzed FBS, 15.4 µM | 99 | 86 | 73.4
RPMI 5 mM glucose + 10% dialyzed FBS, 46.1 µM | 72.5 | 38.1 | 33.6

AUC of viability dose-response curve
Conditions | NOMO1 [4] | P12-Ichikawa [5] | SEM cells [6]
HPLM + 10% dialyzed FBS | 457 | 454 | 409
RPMI 5 mM glucose + 10% FBS | 463 | 436 | 435
RPMI 5 mM glucose + 10% dialyzed FBS | 466 | 452 | 398
